Measured values from patent US9593149B2, “Amylin and calcitonin receptor agonist” (Novo Nordisk A/S, priority 2014, dated 2017).
≈ marks a conversion by molar mass, not a printed value. Numbered stars: 1 amine (or outer) side, 2 acyl side, 3 side chain; on linkers, the order of the positions; unused ones are H or OH. Side chains are listed from the residue outwards. Peptide text beside a SMILES is read from it. * marks the point of attachment. C20 diacid = O=C(O)CCCCCCCCCCCCCCCCCCC(=O)*; γGlu = O=C(O)[C@H](CCC(=O)[*:2])N[*:1]

Test: Assay (IV) determination of solubility
Type: physicochemical
Experimental: Assay (IV)—Determination of Solubility
The mimylin peptide was dissolved in water at ˜500 nmol/ml and mixed 1:1 with a series of buffers (100 mM glycylglycine pH 3.0, 100 mM glycylglycine pH 4.0, 100 mM glycylglycine pH 5.0, 100 mM bistrispropane pH 6.0, 100 mM bistrispropane pH 6.5, 100 mM bistrispropane pH 7.0, 100 mM bistrispropane pH 7.5, 100 mM bistrispropane pH 8.0).

Row | Solubility (pH 3.0) | Solubility (pH 4.0) | Solubility (pH 5.0) | solubility at 18 h (pH 6.0) [µM] | solubility at 18 h (pH 6.5) [µM] | solubility at 18 h (pH 7.0) [µM] | Solubility (pH 7.5) | Solubility (pH 8.0) | solubility at 18 h (pH 5.0) [µM] | Solubility (pH 6.0) | Solubility (pH 6.5) | Solubility (pH 7.0) | SMILES
1 | ≧200 μM | ≧200 μM | ≧200 μM | 148 (≈ 580 µg/mL) | 129 (≈ 506 µg/mL) | 74 (≈ 290 µg/mL) | ≧200 μM | ≧200 μM | – | – | – | – | CC(C)C[C@H](NC(=O)CNC(=O)[C@H](CO)NC(=O)[C@H](C)N)C(=O)N[C@@H](CO)C(=O)N[C@H](C(=O)N[C@@H](C)C(=O)N[C@@H](C)C(=O)N[C@@H](CC(C)C)C(=O)NCC(=O)N[C@@H](CCCNC(=N)N)C(=O)N[C@@H](CC(C)C)C(=O)N[C@@H](CO)C(=O)N[C@@H](CCC(N)=O)C(=O)N[C@@H](CCC(=O)O)C(=O)N[C@@H](CC(C)C)C(=O)N[C@@H](Cc1cnc[nH]1)C(=O)N[C@@H](CCC(=O)O)C(=O)N[C@@H](CC(C)C)C(=O)N[C@@H](CCC(N)=O)C(=O)N[C@H](C(=O)N[C@@H](Cc1ccc(O)cc1)C(=O)N1CCC[C@H]1C(=O)N[C@@H](CCCNC(=N)N)C(=O)N[C@H](C(=O)N[C@@H](CCC(=O)O)C(=O)N[C@H](C(=O)NCC(=O)N[C@@H](CO)C(=O)N[C@@H](CCCCNC(=O)CC[C@H](NC(=O)CCCCCCCCCCCCCCCCCCC(=O)O)C(=O)O)C(=O)N[C@H](C(=O)N[C@@H](Cc1ccc(O)cc1)C(N)=O)[C@@H](C)O)[C@@H](C)O)[C@@H](C)O)[C@@H](C)O)[C@@H](C)O [compound 107, [des1, 4G, 15Q, 21Q, 23Y, 30S, 31K(C20 diacid-gGlu), 32T, 33Y]mimylin] (H-ASGLSTAALGRLSQELHELQTYPRTETGSK([γGlu-C20 diacid])TY-NH2)
2 | ≧200 μM | ≧200 μM | – | – | – | – | ≧200 μM | ≧200 μM | 65 (≈ 250 µg/mL) | ≧200 μM | ≧200 μM | ≧200 μM | CC(C)C[C@H](NC(=O)CNC(=O)[C@H](CO)NC(=O)[C@H](C)NC(=O)CC[C@H](NC(=O)CCCCCCCCCCCCCCCCCCC(=O)O)C(=O)O)C(=O)N[C@@H](CO)C(=O)N[C@H](C(=O)N[C@@H](C)C(=O)N[C@@H](C)C(=O)N[C@@H](CC(C)C)C(=O)NCC(=O)N[C@@H](CCCNC(=N)N)C(=O)N[C@@H](CC(C)C)C(=O)N[C@@H](CO)C(=O)N[C@@H](CCC(N)=O)C(=O)N[C@@H](CCC(=O)O)C(=O)N[C@@H](CC(C)C)C(=O)N[C@@H](Cc1cnc[nH]1)C(=O)N[C@@H](CCC(=O)O)C(=O)N[C@@H](CC(C)C)C(=O)N[C@@H](CCC(=O)O)C(=O)N[C@H](C(=O)N[C@@H](Cc1ccc(O)cc1)C(=O)N1CCC[C@H]1C(=O)N[C@@H](CCCNC(=N)N)C(=O)N[C@H](C(=O)N[C@@H](CCC(=O)O)C(=O)N[C@H](C(=O)NCC(=O)N[C@@H](CO)C(=O)NCC(=O)N[C@H](C(=O)N[C@@H](Cc1ccc(O)cc1)C(N)=O)[C@@H](C)O)[C@@H](C)O)[C@@H](C)O)[C@@H](C)O)[C@@H](C)O [compound 108, [N-terminal(C20 diacid-gGlu), des1, 4G, 15Q, 21E, 23Y, 30S, 31G, 32T, 33Y]mimylin] ({C20 diacid-γGlu}-ASGLSTAALGRLSQELHELETYPRTETGSGTY-NH2)
